From patent publication EP1158297A1, “METHOD FOR SCREENING COMPOUND HAVING AFFINITY FOR VITAMIN D RECEPTOR” (CHUGAI SEIYAKU KABUSHIKI KAISHA, priority 1999, dated 2000)
Like-named read-outs stand apart in the source and are kept apart here.

What was measured:
VDRE = experiment: Reporter gene (CAT) assay using reporter gene vector having VDRE; format: cell-based, African green monkey; conditions: for VDRE-mediated transcription promoting activity: relative value with the EC50 value of 1α,25-dihydroxyvitamin D3 as 100%, COS-1 cells with rat vitamin D receptor expression vector, CAT ELISA, lower = more potent
Excerpt: The reporter gene vector having VDRE used was a product produced by integrating VDRE ([…]) of a mouse osteopontin gene into a cassette vector (pGCAT; Kato S. et al., Cell (1992)68, 731-742) containing a promoter region (-109/+10) of rabbit β-globin and CAT (chloramphenicol acetyltransferase). As an expression vector for β-galactosidase used for correction of transfection efficiency, pCH110 (Pharmacia) was used. As a carrier vector, BSM (BluescribeM13+: […]) was used.
The rat vitamin D receptor expression vector used was a product obtained by integrating cDNA of a rat vitamin D receptor into pSG5 ([…]).
COS-1 cells were cultured in a DMEM medium containing 5% FBS and 10 nM insulin, and cultures were subcultured at intervals of 3 or 4 days at a density of 1,500 to 3,000 cells/cm^2. The conditions for culture were 37°C and 5% CO2. For cultivation of COS-1 cells during reporter gene assay, a phenol red-free DMEM medium containing 5% DCC-FBS (charcoal-treated FBS) and 10 nM insulin was used. COS-1 cells were seeded into a 6-well plate at a density of 5 to 8 x 10^4 cells/1.75 mL/well. […]
After overnight culture, each well was washed with 1 mL/well of a phenol red-free DMEM medium. […] Then, the amount of CAT expressed was measured using a CAT ELISA kit (Boehringer Mannheim).
The cell lysate (10 µL), 175 µL of Buffer Z (60 mM Na2HPO4, 40 mM NaH2PO4, 10 mM KCl, 1 mM MgSO4) and 35 µL of 4 mg/mL ONPG (o-nitrophenyl-β-D-galactopyranoside; SIGMA) were mixed in a 96-well plate (Nunc-Immuno plate Maxi Sorp Surface) and the system was incubated for 1 hour at 37°C. Then, 100 µL of 1M Na2CO3 was added to terminate the reaction and A415 was measured with a plate reader. Based on the measured values, the number of units of the cell lysate was calculated from the following equation and the cell lysate in an amount corresponding to 15 units was used in CAT ELISA measurement. […]
Based on the measured values of CAT ELISA, the EC50 value of each derivative was calculated to evaluate the VDRE-mediated action.

osteoporosis model rats [1] = format: in vivo; conditions: OVX rats, third lumbar vertebra
Description: 7- to 9-week-old W-I female rats (Imamichi Institute for Animal Reproduction) were subject to ovariectomy. […] After the last dose, 24-hour urine was sampled and the blood was taken under ether anesthesia. After the animal was euthanized, the lumbar vertebrae were removed.
The lumbar bone mineral density was measured at the third lumbar vertebra site using a dual X-ray bone mineral content measuring device (DCS-600, ALOKA). The blood and urinary calcium concentrations and the urinary creatinine concentration were measured with an automatic analyzer (Model 7170, Hitachi).
Statistical processing was carried out using Statistic Analysis System (SAS) software. A comparison between a sham operation (sham) group and an ovariectomy (OVX) group was made by an unpaired t-test. A comparison between the OVX group and the drug treatment group, or a comparison between the sham group and the drug treatment group was made by Dunnett's multiple test. A P-value less then 5% was considered as a significant difference.

osteoporosis model rats [2] = experiment: Bone mass decrease in osteoporosis model rats, oral treatment (Example 3); format: in vivo
Description: 8-week-old W-I female rats (Imamichi Institute for Animal Reproduction) were subjected to overiectomy. From the following day onward, 1α-hydroxyvitamin D3 was orally administered 5 times weekly in a daily dose of 0.1 µg/kg, or Compound No. 22 was orally administered daily for 5 weeks in a daily dose of 3 µg/kg given as a single dose or two divided doses. After the last dose, 24-hour urine was sampled and a blood sample was taken under ether anesthesia. After the animal was euthanized, the lumbar vertebrae were removed. The lumbar bone mineral density was measured at the third lumbar vertebra site using a dual X-ray bone mineral content measuring device (DCS-600EX, ALOKA). The blood and urinary calcium concentrations and the urinary creatinine concentration were measured with an automatic analyzer (Model 7170, Hitachi).
Statistical processing was carried out using basic software for statistical analysis (SAS). A comparison between the sham group and the OVX group, a comparison between the OVX group and the 1α-hydroxyvitamin D3 treatment group, or a comparison between the sham group and the 1α-hydroxyvitamin D3 treatment group was made by an unpaired t-test, with the p value less than 5% representing a significant difference. A comparison between the OVX group and the Compound No. 22 group, or a comparison between the sham group and the Compound No. 22 group was made by Dunnett's multiple test, with the p value less than 5% showing a significant difference.

AP-1 complex = experiment: Reporter gene (luciferase) assay using reporter gene vector having AP-1 binding sequence; format: cell-based, human; conditions: IC37.5 value expressed as percentage of the value of 1α,25-dihydroxyvitamin D3 (100%); Jurkat cells with rat vitamin D receptor expression vector, PMA and ionomycin stimulation; lower = more potent
Excerpt: (§1) A basic vector was constructed by inserting a promoter region (-72/+47) of a human IL-2 gene into a cassette vector of luciferase (pXP2; described in S.K. Nordeen, Biotechniques, Vol. 6, pp. 454-456, (1988)). For a reporter gene vector having an AP-1 binding sequence, five AP-1 binding sequences ([…]) of a human collagenase (MMP-1) gene were inserted tandem into the basic vector. For a reporter gene vector having an NF-κB binding sequence, four NF-κB binding sequences ([…]) of a human immunoglobulin light chain κ gene were inserted tandem into the basic vector. The resulting products were used as the respective reporter gene vectors.
(§2) The rat vitamin D receptor expression vector used was a product obtained by inserting cDNA of a rat vitamin D receptor (described in James K. Burmester et al., Proc. Natl. Acad. Sci. USA, Vol. 85, pp. 9499-9502, […]) into the pSG5 ([…]).
(§3) Jurkat cells were cultured in RPMI-1640 (GIBCO BRL) containing 10% FBS and antibiotics. The culture was started at a density of 5 x 10^4 cells/mL and the cells were subcultured at intervals of 3 or 4 days to a density of 5 x 10^4 cells/mL. The conditions for culture were 37°C and 5% CO2. […] Both of the solutions were mixed and then allowed to stand for 30 minute at room temperature.

NF-κB family = experiment: Reporter gene (luciferase) assay using reporter gene vector having NF-κB binding sequence; format: cell-based, human; conditions: IC37.5 value expressed as percentage of the value of 1α,25-dihydroxyvitamin D3 (100%); Jurkat cells with rat vitamin D receptor expression vector, PMA and ionomycin stimulation; lower = more potent
Excerpt: as §1, §2, §3

osteoporosis model rats [3] = experiment: Bone strength decrease and bone resorption in osteoporosis model rats, oral treatment (Example 4); format: in vivo
Description: 13-month-old W-I female rats (Imamichi Institute for Animal Reproduction) were subject to overiectomy. From the following day onward, Compound No. 22 was administered p.o. daily for 3 months in a daily dose of 1.5 to 6 µg/kg given as two divided doses. After the last dose, 24-hour urine was sampled and a blood sample was taken under ether anesthesia. After the animal was euthanized, the lumbar vertebrae were removed.
The lumbar bone mineral density was measured at the second to fourth lumbar vertebra site using a dual X-ray bone mineral content measuring device (DCS-600EX, ALOKA). The bone strength of the fifth lumbar vertebra was measured with Autograph AG-2000E (Shimadzu Corp.). The blood calcium concentration and the urinary creatinine concentration were measured with an automatic analyzer (Model 7170, Hitachi). The urinary deoxypyridinoline was measured with Osteolinks DPD.
Statistical Analysis was carried out using Statistic Analysis System (SAS) software. A comparison between the sham group and the OVX group was made by an unpaired t-test. A comparison between the OVX group and the Compound No. 22 treatment group, or a comparison between the sham group and the Compound No. 22 treatment group was made by Dunnett's multiple test, with the p value less than 5% showing a significant difference.

vitamin D receptor = target: T1, vitamin D receptor (Homo sapiens, UniProt P11473); experiment: Affinity for vitamin D receptor; format: binding; conditions: relative to that of 1α,25-dihydroxyvitamin D3
T1 sequence (P11473 1-427): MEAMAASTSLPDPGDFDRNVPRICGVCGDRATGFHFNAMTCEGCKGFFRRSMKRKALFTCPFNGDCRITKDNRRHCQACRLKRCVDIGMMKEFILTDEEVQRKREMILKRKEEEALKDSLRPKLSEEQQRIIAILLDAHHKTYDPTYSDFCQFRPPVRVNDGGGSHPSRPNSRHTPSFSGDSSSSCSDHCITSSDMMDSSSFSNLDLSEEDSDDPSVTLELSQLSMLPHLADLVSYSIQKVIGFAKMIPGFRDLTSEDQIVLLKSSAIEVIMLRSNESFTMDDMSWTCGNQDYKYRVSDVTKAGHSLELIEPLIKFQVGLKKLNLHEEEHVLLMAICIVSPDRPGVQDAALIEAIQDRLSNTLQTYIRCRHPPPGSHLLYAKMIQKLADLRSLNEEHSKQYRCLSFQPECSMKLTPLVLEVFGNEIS

[4] = OVX rats, 0.1 µg/kg orally 5 times weekly, in comparison with the sham group and the OVX group

Compound | VDRE-mediated transcription promoting activity (VDRE) [%] | decrease in bone mineral density (osteoporosis model rats [1]; 0.04 µg/kg subcutaneously 5 times weekly for 6 weeks) | decrease in bone mineral density by OVX (osteoporosis model rats [2]; 0.1 µg/kg orally 5 times weekly, third lumbar vertebra) | blood Ca level (osteoporosis model rats [2]; [4]) | urinary Ca excretion (osteoporosis model rats [2]; [4]) | Inhibitory activity against AP-1 complex (AP-1 complex) [%] | Inhibitory activity against NF-κB family (NF-κB family) [%] | VDRE-mediated transcription promoting activity relative to that of 1α,25-dihydroxyvitamin D3 (VDRE; fraction of the activity of 1α,25-dihydroxyvitamin D3) | decrease in bone mineral density (osteoporosis model rats [1]; 0.1 µg/kg subcutaneously 5 times weekly for 6 weeks) | decrease in bone mineral density (osteoporosis model rats [1]; doses of 0.01 to 0.1 µg/kg subcutaneously 5 times weekly for 6 weeks) | effect of suppressing the decrease in bone mineral density (osteoporosis model rats [2]; OVX rats, orally 3 µg/kg once daily or 1.5 µg/kg twice daily for 5 weeks, third lumbar vertebra) | serum Ca concentration (osteoporosis model rats [3]; OVX rats, orally 0.75, 1.5 or 3 µg/kg twice daily for 3 months) | urinary Dpyr excretion increased by OVX (osteoporosis model rats [3]; oral treatment twice daily for 3 months, urinary deoxypyridinoline, bone resorption marker) | decrease in the bone strength by OVX (osteoporosis model rats [3]; orally 0.75, 1.5 or 3 µg/kg twice daily for 3 months, fifth lumbar vertebra) | decrease in the bone mineral density by OVX (osteoporosis model rats [3]; orally 0.75, 1.5 or 3 µg/kg twice daily for 3 months, second to fourth lumbar vertebra) | affinity for a vitamin D receptor (vitamin D receptor) [times]
C=C1/C(=C\C=C2/CCC[C@]3(C)[C@@H]([C@H](C)CCCC(C)(C)O)CC[C@@H]23)C[C@@H](O)C[C@@H]1O [1α,25-dihydroxyvitamin D3, reference compound] | 100.00 | significantly suppressed |  |  |  |  |  |  |  |  |  |  |  |  |  | 
C=C1/C(=C\C=C2/CCC[C@]3(C)[C@@H]([C@H](C)CCCC(C)C)CC[C@@H]23)C[C@@H](O)C[C@@H]1O [1α-hydroxyvitamin D3] |  |  | significantly suppressed | significantly increased | significantly increased |  |  |  |  |  |  |  |  |  |  | 
C=C1/C(=C\C=C2/CCC[C@]3(C)C([C@@H](C)SCC(O)(CC)CC)=CC[C@@H]23)C[C@@H](O)C[C@@H]1O [Compound 22, 1α,3β-dihydroxy-20(R)-(2-ethyl-2-hydroxybutylthio)-9,10-secopregna-5,7,10(19),16-tetraene] | 1032.20 |  |  |  |  | 3.74 | 5.19 | about 1/10 | significant suppressing effect | dose-dependent effect of suppressing the decrease in bone mineral density | comparable to or higher than that of 1α-hydroxyvitamin D3 | without increases | significantly decreased | significantly suppressed | significantly suppressed | 0.8
